Reference: PMC3849007 (Journal of Experimental & Clinical Cancer Research : CR, 2013)

Columns and labels:
[1] = test system: telomere aberrations in BJ-EHLT fibroblasts; assay: Telomere FISH on metaphase spreads; format: cell-based, human; settings: 0.5 μM, 72 hrs
Experimental: For metaphase chromosome preparation cells were treated with demecolcine (Sigma, Milan, Italy) 0.1 mg/ml for 4 h and then harvested and washed in 75 mM KCl for 5 min at 37°C. After centrifugation cells were fixed in MeOH/acetic acid 3:1 overnight and then spread on slides. Hybridization with rhodamine-coupled PNA was performed as described. For each sample 20 metaphases per slice on triplicate were scored. Images of the metaphases were captured with a 100 × objective.

[2] = test system: γH2AX in BJ-EHLT fibroblasts; assay: Immunofluorescence for γH2AX (DNA damage response); format: cell-based, human; settings: 0.5 μM, 24 hrs
Experimental: Cells were fixed in 2% formaldehyde and permeabilized in 0.25% Triton X100 in PBS for 5 min at room temperature. For immunolabeling, cells were incubated with primary antibody, then washed in PBS and incubated with the secondary antibodies. The following primary antibodies were used: pAb and mAb anti-TRF1 (Abcam Ltd.; Cambridge UK); mAb (Upstate, Lake Placid, NY) and pAb anti-γH2AX (Abcam). The following secondary antibody were used: TRITC conjugated Goat anti Rabbit, FITC conjugated Goat anti Mouse (Jackson ImmunoResearch Europe Ltd., Suffolk, UK). Fluorescence signals were recorded by using a Leica DMIRE2 microscope equipped with a Leica DFC 350FX camera and elaborated by a Leica FW4000 deconvolution software (Leica, Solms, Germany). This system permits to focus single planes inside the cell generating 3D high-resolution images. For quantitative analysis of γH2AX positivity, 200 cells on triplicate slices were scored. For TIF’s analysis, in each nucleus a single plane was analyzed and at least 50 nuclei per sample were scored.

[3] = design: method as in doi:10.1016/S0040-4020(01)90102-4; settings: cited from earlier work
[4] = test system: anaphase bridges in BJ-EHLT fibroblasts; format: cell-based; settings: 0.5 μM, 24 hrs
Text: Anaphase bridges were scored by counting 400 nuclei per sample in triplicate. Histograms show the fold induction in treated versus untreated samples. Right panels show representative images of anaphase bridges in the treated samples at 63× magnification. Histograms show the mean of three independent experiments. Error bars indicate ± SD. (*P < 0.05).
As a result of chromosome ends fusion consequent to telomere damage, chromatin bridges are occasionally observed between daughter cells after mitosis (also called anaphase bridges).

anaesthetised guinea pig = assay: Cardiovascular effects in anaesthetised guinea pig; format: in vivo; settings: escalating iv doses 0.25, 0.5, 1 mg/kg, 60 min apart
Experimental: After anaesthesia with approximately 40 to 60 mg/kg (i.p.) sodium pentobarbitone, a jugular vein was cannulated for administration of the vehicle or test substance. Arterial blood pressure (systolic, diastolic and mean) was measured via a catheter inserted into the carotid artery, heart rate was derived electronically from the pressure waveform and a sample of arterial blood determined blood gases (PO2 and PCO2), O2 saturation, standard bicarbonate (HCO3), pH and base excess before the start of the experiment. Electrocardiogram (ECG) limb electrodes recorded the standard lead II configuration and QTcB interval (calculated as QTcB = QT/(√RR)). The animal was allowed to stabilise after completion of the surgical preparation for a period of at least 15 min. Then, after a further 10 min period of continuous recording of ECG and haemodynamic variables, the test substance or vehicle was administered intravenously as 3 iv infusions with each administration separated by 60 min.
Several limitations exist in the use of mouse and rat models for the study of cardiotoxic effects in pharmacology, which regard differences in myocardial function compared to the human heart. […]

| SMILES | telomere aberrations (telomere doublets, sister telomere fusions) [1] | percentage of cells positive for γH2AX [2] | solubility [3] | anaphase bridges frequency, fold induction vs untreated [4] | effect on QTcB interval (anaesthetised guinea pig; all doses, listed as RHPS4) | effect on heart rate (anaesthetised guinea pig; cumulative 1.75 mg/kg) |
| --- | --- | --- | --- | --- | --- | --- |
| CC(=O)Nc1ccc2c(c1)c1cccc3c1c([n+]2C)-c1ccccc1N3C [Compound 3, 3-acetylamino-8,13-dimethyl-8H-quino[4,3,2-kl]-acridinium iodide] | lower effect | less potent than the lead compound | – | – | – | – |
| Cc1cc2c3c([n+](C)c4ccc(F)cc4c3c1)-c1cc(F)ccc1N2C [Compound 1, 3,11-Difluoro-6,8,13-trimethyl-8H-quino[4,3,2-kl]acridinium metho-sulfate] | – | – | high solubility | ten | marked and sustained increase in QTcB interval | dose-related decrease in heart rate |
